Results: patent US8980792B2, “Compositions comprising abscisic acid and a fungicidally active compound” (Syngenta Participations AG, priority 2010, dated 2015)

System: Mycosphaerella graminicola (Septoria tritici)
Test: Septoria tritici leaf spot on wheat, preventative foliar spray test
Format: in vivo
Description: Mycosphaerella graminicola (Septoria tritici)/Wheat/Preventative (Septoria tritici Leaf Spot on Wheat)
The isopyrazam is formulated as an emulsion concentrate formulation and mixed with water to form a stock solution and ultrasonically agitated in order to achieve homogeneous distribution. Spray solutions are made up from the stock solution by dilution in water/isopropanol (10% isopropanol v/v), with abscisic acid added where needed as a tank mix to the diluted stock solution, and mechanically stirred just before spraying. Foliar application is at 200 L/ha using an application device spraying with a single nozzle (Lechler type) 60 cm above the plants. Typically two-week old wheat plants cv. Riband are sprayed with the spray solution in the spray chamber of the application device. The test plants are inoculated by spraying a spore suspension on them one day after application. After an incubation period of 1 day at typically 22° C./21° C. (day/night) and 95% rh, the inoculated test plants are kept at typically 22° C./21° C. (day/night) and 70% rh in a greenhouse. Percentage efficacy is assessed by direct visual comparison to untreated check plants when an appropriate level of disease appears on the untreated checks (typically 14-19 days after application).

| Structure (SMILES) | % Disease Control (abscisic acid 0.0025 % w/v alone, foliar spray 200 L/ha, wheat) | % Disease Control (abscisic acid 0.0238 % w/v alone, foliar spray 200 L/ha, wheat) | % Disease Control (isopyrazam 2.44 mg/ml alone) | % Disease Control (isopyrazam 9.77 mg/ml alone) | % Disease Control (isopyrazam 39.06 mg/ml alone) | % Disease Control (isopyrazam 156.25 mg/ml alone) | % Disease Control (isopyrazam 625.00 mg/ml alone) |
| --- | --- | --- | --- | --- | --- | --- | --- |
| CC1=CC(=O)CC(C)(C)[C@@]1(O)/C=C/C(C)=C\C(=O)O [Abscisic acid] | 0% | 0% |  |  |  |  |  |
| CC(C)C1C2CCC1c1c(NC(=O)c3cn(C)nc3C(F)F)cccc12 (stereo not shown) [Isopyrazam] |  |  | 3% | 10% | 50% | 67% | 80% |
